Patent publication US20220232831A1, “NOVEL NON-CODING HETEROCYCLIC AMINO ACIDS (NCHAA) AND THEIR USE AS HERBICIDES” (Fortephest Ltd., priority 2019, published 2022)

Legend:
[1] = test system: Romaine lettuce (Lactuca sativa L.) plants; assay: Post-emergency herbicidal activity on Romaine lettuce plants; assay type: in vivo; conditions: Romaine lettuce at stage 2 to 3 leaves; compound in 0.1% Silwet, up to 0.5%; visual evaluation vs control plants
Protocol: The tests were performed on Romaine lettuce (Lactuca sativa L.) plants at the stage 2 to 3 leaves. The plants were grown on 300 well trays packed with soil, well dimensions 2×2×5 cm. Each compound was dissolved in 0.1% water solution of agronomically acceptable surfactant Silwet to final concentrations ranging from 0.0% (Control) to 0.5%. Two weeks after the treatment the herbicidal effects of the respective test material were visually evaluated by a comparison with the control plants. In addition, the aboveground part of the plant was neatly cut and weighed (wet weight). Each test was performed on 20 to 40 plants. The degree of growth inhibition and damage was evaluated according to the parameters in Table 2. Plant development at 7, 14, and 21 DAA (days after application) were evaluated on a scale of 0 to 100, in which score 0 represents dead plants and score 100 represents healthy plants according to plant vigor, height, and leaf color. Each test included 20 to 40 plants.

[2] = test system: Seeds of Lettuce R. (Super-Jericho); assay: Filter paper bioassay with lettuce seeds (germination and early plant development); assay type: in vivo; conditions: lettuce seeds on filter paper; 1, 0.1, 0.01, 0.001 mM; radicle and shoots assessed after 6 days
Protocol: Seeds of Lettuce R. (Super-Jericho, non-sterilized) were obtained from Ben Shahar Moshe Ltd., 99% purity.
Filter Paper Bioassays with Lettuce Seeds:
The protocol is following Bertin et al. 2009 and Movellan et al. 2014 with specified modifications as described below.
Seeds were placed on Whatman no. 1 filter paper (Whatman, Middlesex, U.K.) in Petri dishes (10 seeds per plate) supplemented with 2.0 ml of water (Control) or with a solution comprising 1 mM, 0.1 mM, 0.01 mM and 0.001 mM of test material. Petri dishes with seeds were placed in a tray at an angle of 45°. The trays were kept in dark for 48 hours and then transferred to the growth chamber (22° C., 0.045 mmol×m−2×s−1 photosynthetic photon flux density; 6/18 dark/light cycle) for additional 4 days. Each experiment was performed at least in two repeats. The development of radicle and shoots of experimental and control plants were visually assessed 6 days after the beginning of the test to determine Minimal Effective Concentration (MEC) of test material. In the context of the invention, MEC is defined as the lowest concentration level of a test material that caused deviation (absence of germination or malformation of radicle and shoots) from the plant's development in the Control group.

## NC(Cc1cc(Br)sc1Br)C(=O)O (centres unmarked) [Code 552]
[1]
  post-emergency herbicidal activity (Activity Index: plant's development vs Control): Maximal (Less than 15)
[2]
  Minimal Effective Concentration (MEC) as activity score, seeds germination & early plants development: Moderate (1 mM)

## NC(Cc1csc([N+](=O)[O-])c1)C(=O)O (centres unmarked) [Code 553]
[1]
  post-emergency herbicidal activity (Activity Index: plant's development vs Control): Weak (More than 75)
[2]
  Minimal Effective Concentration (MEC) as activity score, seeds germination & early plants development: Weak (More than 1 mM)

## CCOCCOC(=O)C(Cc1nc(Cl)sc1Cl)NC(C)=O (centres unmarked) [Code 555]
[1]
  post-emergency herbicidal activity (Activity Index: plant's development vs Control): Maximal (Less than 15)
[2]
  Minimal Effective Concentration (MEC) as activity score, seeds germination & early plants development: Strong (0.1 mM)

## NC(Cc1csc(C(F)(F)F)c1)C(=O)O (centres unmarked) [Code 556]
[1]
  post-emergency herbicidal activity (Activity Index: plant's development vs Control): Maximal (Less than 15)
[2]
  Minimal Effective Concentration (MEC) as activity score, seeds germination & early plants development: Strong (0.1 mM)

## N[C@@H](Cn1oc(=O)[nH]c1=O)C(=O)O [Code 557]
[1]
  post-emergency herbicidal activity (Activity Index: plant's development vs Control): Weak (More than 75)
[2]
  Minimal Effective Concentration (MEC) as activity score, seeds germination & early plants development: Weak (More than 1 mM)

## NC(CNS(=O)(=O)c1cc(Br)sc1Br)C(=O)O (centres unmarked) [Code 558]
[1]
  post-emergency herbicidal activity (Activity Index: plant's development vs Control): Very Strong (From 15 to 25)
[2]
  Minimal Effective Concentration (MEC) as activity score, seeds germination & early plants development: Maximal (0.01 mM and less)

## NC(CC1CCS(=O)(=O)C1)C(=O)O (centres unmarked) [Code 561]
[1]
  post-emergency herbicidal activity (Activity Index: plant's development vs Control): Weak (More than 75)
[2]
  Minimal Effective Concentration (MEC) as activity score, seeds germination & early plants development: Weak (More than 1 mM)

## NC(CC1CCSC1)C(=O)O (centres unmarked) [Code 562]
[1]
  post-emergency herbicidal activity (Activity Index: plant's development vs Control): Weak (More than 75)
[2]
  Minimal Effective Concentration (MEC) as activity score, seeds germination & early plants development: Weak (More than 1 mM)

## NC(CP(=O)(O)O)c1ccsc1 (centres unmarked) [Code 563]
[1]
  post-emergency herbicidal activity (Activity Index: plant's development vs Control): Weak (More than 75)
[2]
  Minimal Effective Concentration (MEC) as activity score, seeds germination & early plants development: Weak (More than 1 mM)

## CC1=CC(CC(N)C(=O)O)=C(C)S1(=O)=O (centres unmarked) [Code 564]
[1]
  post-emergency herbicidal activity (Activity Index: plant's development vs Control): Weak (More than 75)
[2]
  Minimal Effective Concentration (MEC) as activity score, seeds germination & early plants development: Weak (More than 1 mM)

## O=C1C=C(CC(NP(=O)(O)O)C(=O)O)C(=O)S1 (centres unmarked) [Code 565]
[1]
  post-emergency herbicidal activity (Activity Index: plant's development vs Control): Weak (More than 75)
[2]
  Minimal Effective Concentration (MEC) as activity score, seeds germination & early plants development: Strong (0.1 mM)

## NC(Cc1cscc1C(F)(F)F)C(=O)O (centres unmarked) [Code 566]
[1]
  post-emergency herbicidal activity (Activity Index: plant's development vs Control): Maximal (Less than 15)
[2]
  Minimal Effective Concentration (MEC) as activity score, seeds germination & early plants development: Strong (0.1 mM)

## CCOC(=O)C(Cc1nc(Cl)sc1Cl)NC(C)=O (centres unmarked) [Code 567]
[1]
  post-emergency herbicidal activity (Activity Index: plant's development vs Control): Maximal (Less than 15)
[2]
  Minimal Effective Concentration (MEC) as activity score, seeds germination & early plants development: Weak (More than 1 mM)

## CCOC(=O)C(N)Cc1cc(Cl)sc1Cl (centres unmarked) [Code 569]
[1]
  post-emergency herbicidal activity (Activity Index: plant's development vs Control): Maximal (Less than 15)
[2]
  Minimal Effective Concentration (MEC) as activity score, seeds germination & early plants development: Strong (0.1 mM)

## COCCOCCOC(=O)C(N)Cc1ccsc1 (centres unmarked) [Code 570]
[1]
  post-emergency herbicidal activity (Activity Index: plant's development vs Control): Very Strong (From 15 to 25)
[2]
  Minimal Effective Concentration (MEC) as activity score, seeds germination & early plants development: Maximal (0.01 mM and less)

## CCOC(=O)C(Cc1ccsc1)NC(C)=O (centres unmarked) [Code 571]
[1]
  post-emergency herbicidal activity (Activity Index: plant's development vs Control): Very Strong (From 15 to 25)
[2]
  Minimal Effective Concentration (MEC) as activity score, seeds germination & early plants development: Strong (0.1 mM)

## CCOC(=O)C(Cc1cc(Cl)sc1Cl)NC(C)=O (centres unmarked) [Code 573]
[1]
  post-emergency herbicidal activity (Activity Index: plant's development vs Control): Maximal (Less than 15)
[2]
  Minimal Effective Concentration (MEC) as activity score, seeds germination & early plants development: Strong (0.1 mM)

## CCOC(=O)C(Cc1cc(Cl)oc1Cl)NC(C)=O (centres unmarked) [Code 574]
[1]
  post-emergency herbicidal activity (Activity Index: plant's development vs Control): Moderate (From 50 to 75)
[2]
  Minimal Effective Concentration (MEC) as activity score, seeds germination & early plants development: Strong (0.1 mM)

## CCCOC(=O)C(N)Cc1cc(Cl)oc1Cl (centres unmarked) [Code 575]
[1]
  post-emergency herbicidal activity (Activity Index: plant's development vs Control): Moderate (From 50 to 75)
[2]
  Minimal Effective Concentration (MEC) as activity score, seeds germination & early plants development: Strong (0.1 mM)

## CCOC(=O)C(Cc1csc[n+]1C)NC(C)=O.[Cl-] (centres unmarked) [Code 576]
[1]
  post-emergency herbicidal activity (Activity Index: plant's development vs Control): Maximal (Less than 15)
[2]
  Minimal Effective Concentration (MEC) as activity score, seeds germination & early plants development: Moderate (1 mM)

## CCOCCOCCOC(=O)C(Cc1cc(Cl)sc1Cl)NC(C)=O (centres unmarked) [Code 577]
[1]
  post-emergency herbicidal activity (Activity Index: plant's development vs Control): Strong (From 25 to 50)
[2]
  Minimal Effective Concentration (MEC) as activity score, seeds germination & early plants development: Moderate (1 mM)

## CCOC(=O)C(N)CNS(=O)(=O)c1cc(Br)sc1Br (centres unmarked) [Code 580]
[1]
  post-emergency herbicidal activity (Activity Index: plant's development vs Control): Very Strong (From 15 to 25)
[2]
  Minimal Effective Concentration (MEC) as activity score, seeds germination & early plants development: Strong (0.1 mM)

## CCCCOC(=O)C(Cc1nsc(Cl)n1)NC(C)=O (centres unmarked) [Code 595]
[1]
  post-emergency herbicidal activity (Activity Index: plant's development vs Control): Strong (From 25 to 50)
[2]
  Minimal Effective Concentration (MEC) as activity score, seeds germination & early plants development: Strong (0.1 mM)

## NC(Cc1ccnnc1)C(=O)O (centres unmarked) [Code 601]
[1]
  post-emergency herbicidal activity (Activity Index: plant's development vs Control): Weak (More than 75)
[2]
  Minimal Effective Concentration (MEC) as activity score, seeds germination & early plants development: Weak (More than 1 mM)

## NC(Cc1ccncc1)C(=O)O (centres unmarked) [Code 602]
[1]
  post-emergency herbicidal activity (Activity Index: plant's development vs Control): Moderate (From 50 to 75)
[2]
  Minimal Effective Concentration (MEC) as activity score, seeds germination & early plants development: Strong (0.1 mM)

## Cl.Cl.NC(Cc1cccnc1)C(=O)O (centres unmarked) [Code 603]
[1]
  post-emergency herbicidal activity (Activity Index: plant's development vs Control): Strong (From 25 to 50)
[2]
  Minimal Effective Concentration (MEC) as activity score, seeds germination & early plants development: Strong (0.1 mM)

## N[C@@H](Cc1cncc(O)c1)C(=O)O [Code 605]
[1]
  post-emergency herbicidal activity (Activity Index: plant's development vs Control): Weak (More than 75)
[2]
  Minimal Effective Concentration (MEC) as activity score, seeds germination & early plants development: Weak (More than 1 mM)

## Cc1cncc(CC(N)C(=O)O)c1 (centres unmarked) [Code 606]
[1]
  post-emergency herbicidal activity (Activity Index: plant's development vs Control): Weak (More than 75)
[2]
  Minimal Effective Concentration (MEC) as activity score, seeds germination & early plants development: Weak (More than 1 mM)

## Nc1ccnc(CC(N)C(=O)O)c1 (centres unmarked) [Code 607]
[1]
  post-emergency herbicidal activity (Activity Index: plant's development vs Control): Weak (More than 75)
[2]
  Minimal Effective Concentration (MEC) as activity score, seeds germination & early plants development: Weak (More than 1 mM)

## Nc1cc(CC(N)C(=O)O)ccn1 (centres unmarked) [Code 608]
[1]
  post-emergency herbicidal activity (Activity Index: plant's development vs Control): Moderate (From 50 to 75)
[2]
  Minimal Effective Concentration (MEC) as activity score, seeds germination & early plants development: Moderate (1 mM)

## Nc1cccc(CC(N)C(=O)O)n1 (centres unmarked) [Code 609]
[1]
  post-emergency herbicidal activity (Activity Index: plant's development vs Control): Weak (More than 75)
[2]
  Minimal Effective Concentration (MEC) as activity score, seeds germination & early plants development: Weak (More than 1 mM)

## Nc1cncc(CC(N)C(=O)O)c1 (centres unmarked) [Code 610]
[1]
  post-emergency herbicidal activity (Activity Index: plant's development vs Control): Weak (More than 75)
[2]
  Minimal Effective Concentration (MEC) as activity score, seeds germination & early plants development: Weak (More than 1 mM)

## NC(Cc1cncc(S)c1)C(=O)O (centres unmarked) [Code 612]
[1]
  post-emergency herbicidal activity (Activity Index: plant's development vs Control): Weak (More than 75)
[2]
  Minimal Effective Concentration (MEC) as activity score, seeds germination & early plants development: Weak (More than 1 mM)

## NC(Cc1ccnc(S)c1)C(=O)O (centres unmarked) [Code 613]
[1]
  post-emergency herbicidal activity (Activity Index: plant's development vs Control): Weak (More than 75)
[2]
  Minimal Effective Concentration (MEC) as activity score, seeds germination & early plants development: Weak (More than 1 mM)

## NC(Cc1cncnc1)C(=O)O (centres unmarked) [Code 614]
[1]
  post-emergency herbicidal activity (Activity Index: plant's development vs Control): Weak (More than 75)
[2]
  Minimal Effective Concentration (MEC) as activity score, seeds germination & early plants development: Weak (More than 1 mM)

## Nc1cc(Cl)nc(CC(N)C(=O)O)n1 (centres unmarked) [Code 616]
[1]
  post-emergency herbicidal activity (Activity Index: plant's development vs Control): Weak (More than 75)
[2]
  Minimal Effective Concentration (MEC) as activity score, seeds germination & early plants development: Weak (More than 1 mM)

## Cl.Cl.NC(Cc1ncccn1)C(=O)O (centres unmarked) [Code 618]
[1]
  post-emergency herbicidal activity (Activity Index: plant's development vs Control): Weak (More than 75)
[2]
  Minimal Effective Concentration (MEC) as activity score, seeds germination & early plants development: Weak (More than 1 mM)

## NC(Cc1nccc(O)n1)C(=O)O (centres unmarked) [Code 619]
[1]
  post-emergency herbicidal activity (Activity Index: plant's development vs Control): Weak (More than 75)
[2]
  Minimal Effective Concentration (MEC) as activity score, seeds germination & early plants development: Weak (More than 1 mM)

## NC(Cc1c[nH]c(=O)[nH]c1=O)C(=O)O (centres unmarked) [Code 620]
[1]
  post-emergency herbicidal activity (Activity Index: plant's development vs Control): Weak (More than 75)
[2]
  Minimal Effective Concentration (MEC) as activity score, seeds germination & early plants development: Weak (More than 1 mM)

## NC(Cc1cnccn1)C(=O)O (centres unmarked) [Code 621]
[1]
  post-emergency herbicidal activity (Activity Index: plant's development vs Control): Weak (More than 75)
[2]
  Minimal Effective Concentration (MEC) as activity score, seeds germination & early plants development: Weak (More than 1 mM)
